Here are results for 2 compounds from patent publication US20250143307A1 (priority 2021, published 2025).

Data set [1] is described as follows: Surface charge determination by fluorescein test. Format: physicochemical. The conditions noted are these: activated glass coverslips, spin-coated, baked at 110° C. for 60 minutes.
Protocol: Surface cationic density (N^+/cm^2) was calculated using UV/Vis absorbance of fluorescein. Fluorescein dye molecules (negatively charged) strongly bind to quaternary amino groups (positively charged) belonging to the polymeric chain. The stoichiometry of fluorescein binding is estimated at one dye molecule per four quaternary ammonium moieties. Treated plates were placed in a 1% fluorescein aqueous solution for five minutes, and then rinsed and sonicated in distilled water for several minutes in order to remove physisorbed fluorescein. Plates were rinsed with distilled water and immersed in 3 mL of CTAB 0.5% (aqueous solution of cetyltrimehylammonium bromide) along with PBS (Phosphate-Buffered Saline) (90% CTAB/10% PBS) and sonicated for 10 minutes. The optical density of chemisorbed fluorescein was measured at 501 nm wavelength.
A short description of data set [2]: Manual friction / abrasion resistance of electrostatically sprayed coatings on glass slides. The conditions noted are these: glass slide. Format: physicochemical. How it is done: A glass slide was treated according to the following protocol: • 1) The surface was prepared by cleaning with isopropanol, and allowed to dry; • 2) The sprayer was held about 1 m from the target surface. • 3) The titanium anatase phase in aqueous solution (a mixture of peroxotitanic acid and peroxo-modified anatase sol 0.8%) was sprayed onto the surface using an electrostatic sprayer to form a coating on the target surface. • 4) The surface was allowed to dry for 5 to 10 minutes. • 5) The electrostatic sprayer was rinsed with distilled water. • 6) The biocidal polymer coating solution was added to the sprayer tank. • 7) The biocidal polymer coating solution was sprayed onto the surface at a 1 m distance away from the surface. • 8) The surface was examined to ensure it was not over-saturated with coating solution. • 9) The surface was allowed to dry for several hours.
A second glass slide was treated according to the protocol described above, except the surface was coated with the biocidal polymer solution first, followed by the titanium anatase phase.
In both methods, it was observed that the coating resisted repeated manual friction (over 20 cycles) using both wetted and dry paper towel, cotton-based cloth, and polyester/polypropylene wipes.
Treated and control glass slides were transferred to a 1% fluorescein solution for 10 minutes. […]

Turning to `CCCCCCCCCCCCCCCCCC[N+](C)(C)CC(=O)c1ccc(O)c(O)c1`, in data set [1], the “Calculated surface cationic density” value was 4×10^14 cations/cm^2.
As to `CCCCCCCCCCCCCCCCCC[N+](C)(C)CCC[Si](OC)(OC)OC.[Cl-]` [octadecyldimethyl(3-trimethoxysilylpropyl)ammonium chloride], the “resistance of coating to repeated manual friction” value in data set [2] (sprayed with titanium anatase 0.8%, wetted and dry paper towel, cotton cloth, polyester/polypropylene wipes) is “did not resist manual friction”. The “abrasion resistance by fluorescein test after manual friction” value in data set [2] (titanium anatase sprayed first, then the coating solution) is reported as “did not resist minor abrasion”.
